Literature values, collected in patent publication US20090312281A1, “PROCESS FOR THE PREPARATION OF A PULVERULENT COMPOSITION AND PRODUCT AS OBTAINED” (INNOV'IA, priority 2006, published 2009).

Structure (SMILES)	Solubility in water at 60° C. (% weight/weight)
O=C(CO)[C@@H](O)[C@H](O)[C@H](O)CO [Fructose]	89
OC[C@H]1O[C@@](CO)(O[C@H]2O[C@H](CO)[C@@H](O)[C@H](O)[C@H]2O)[C@@H](O)[C@@H]1O [Sucrose]	71
